For this assay, the system named is T1, FAET.
T1 construct: full-length cDNA (introns removed) with own signal peptide in pPICZB, stop codon kept, no tag seen; secreted by Pichia pastoris GS115, culture supernatant, no purification described
As to the kind of experiment: pNP release at […] nm, microplate, recombinant P. pastoris culture supernatant. The assay is classed as biochemical, Talaromyces purpureogenus. The note with it: 100 mM sodium phosphate pH 5.8, 28 °C (general pNP assay).

As usually defined, the Km is the substrate concentration at which the rate is half of its maximum. With `CC(=O)Oc1ccc([N+](=O)[O-])cc1` [pNP-acetate], the Km was 2300 µM.

`COc1cc(/C=C/C(=O)Oc2ccc([N+](=O)[O-])cc2)ccc1O` [pNP-ferulate]: the Michaelis-Menten constant (Km) came to 1400 µM.

Source of the values: paper PMC5562236, “Properties of Two Novel Esterases Identified from Culture Supernatant of Penicillium purpurogenum Grown on Sugar Beet Pulp” (Insights in enzyme research, 2016).
